{"source": "paper PMC9845330", "about": "(Communications Biology, 2023)", "key": {"H1299 cells": {"tested_on": "H1299 cells", "assay": "Cell binding and internalization by flow cytometry, relative (normalized) uptake of peptide-streptavidin-phycoerythrin", "assay_type": "cell-based, human", "settings": "for Bmax (best-fit): Supplementary Table 2, normalized binding; for fold decrease in affinity: C-terminal truncation versus full-length monomer", "description": "MGS4 was initially selected by phage display biopanning of a peptide library on live cells. […] As such, multivalent binding is often required. To ascertain whether multivalent binding is required for MGS4 internalization, monomeric (MGS4_V2) and tetrameric (MGS4_V1) peptides were synthesized and labeled as described (Supplementary Figure 1). After incubation of varying peptide concentrations on live cells, surface-bound peptide was removed by low pH washes, as well as trypsinization. Relative internalization was measured by flow cytometry to determine an EC50 value which represents the concentration of peptide producing half-maximal internalization. This measurement is dependent on the affinity of the peptide for its cellular target and the rate of internalization. This is a more accurate representation of the biological situation and useful in evaluating the peptides as drug delivery agents. As expected for receptor-mediated endocytosis, uptake of MGS4 is saturable with increasing concentration.\nFig. 1 Monomeric and tetrameric MGS4 have similar binding, internalization and subcellular location. a Binding and internalization of tetrameric MGS4_V1 and monomeric MGS4_V2 on live H1299 cells in culture. Cells were incubated with the peptide conjugated to streptavidin-phycoerythrin for 1 h at 37 °C. Non-internalized peptide was removed and the cells were analyzed by flow cytometry. b H1299 cells were incubated with MGS4_V1 or MGS4_V2 conjugated to streptavidin-Alexa Fluor 555 (red) for 1 h, washed, fixed and counterstained with WGA-Alexa Fluor 488 (green, cell membrane) and DAPI (blue, nuclei) and analyzed by fluorescence microscopy. The scale bar represents 20 µm. MGS4_V1 and MGS4_V2 internalize to a similar degree and localize to a similar destination. c Truncated monomeric MGS4 peptides have similar EC50 as the parental full-length peptide. Individual measurements are shown. The mean is shown as an “X” and black error bars represent standard error for a minimum of three experimental replicates (SEM). All original binding data and nonlinear regression analysis of the data are included in the supplementary materials.\nBiotinylated peptide was conjugated to streptavidin-R-phycoerythrin or streptavidin-Alexa Fluor 647 (1:1 molar ratio) for 30 min. The open binding sites on streptavidin were quenched with RPMI 1640 and diluted to the indicated concentration. Tumor cells were grown to 90% confluency in a 12 well plate, then incubated with 500 µl peptide-dye conjugate at 37 °C. After 1 h, peptide was removed, and the cells were washed 3x with PBS (137 mM NaCl, 2.7 mM KCl, 10 mM Na2HPO4, 1.8 mM KH2PO4, pH 7.4), 2x with 0.1 M HCl-glycine pH2.2 in 0.9% NaCl, and 1x PBS rinse. Cells were removed by trypsinization. Flow cytometry was performed on a BD FACSCelesta, and data were analyzed on Flowing software. Cells were gated based on the forward and side scatter to include only viable cells and a minimum of 10,000 events were counted. A region containing <5% of the cells in the negative control was established, and relative peptide uptake by the mean fluorescence intensity of that population. For absolute peptide uptake per cell, a standard curve was generated using Quantum™ Alexa Fluor 647 microspheres (Bangs Laboratory, Fishers, IN). A representative linear regression showing the correlation of molecule equivalents soluble fluorophores (MESF) vs the mean fluorescence intensity (MFI) is shown in Supplemental Figure 6. Cells were gated based on the forward and side scatter to include only viable cells and a minimum of 10,000 events were counted. MFI was determined at 50% at peak height. Molecules internalized per cell were determined by the standard curve relating MESF to MFI and divided by the number dye molecules/MGS conjugate. An example is shown in supplemental Figure 7. GraphPad Prism® was used for non-linear regression curve fitting to calculate an EC50. […]"}, "Stability in human serum": {"assay": "Stability in human serum", "assay_type": "in vitro ADME", "settings": "100% human serum, 48 h, 37 °C, serum proteins precipitated, analytical HPLC, MALDI TOF/TOF MS", "description": "To address if acetylation is effective in reducing serum degradation of MGS4, acetylated (MGS4_V8) and non-acetylated (MGS4_V4) peptides were dissolved in human serum and incubated for 48 h at 37 °C. The peptides were monitored by analytical HPLC, and products were verified via MALDI TOF/TOF™ MS. […] Instead, a mixture of peptide fragments is detected, none of which correspond to the mass of the starting peptide (Supplemental Table 1 and Supplemental Fig. 2). The major products are shorter fragments corresponding to the loss of the five N-terminal amino acids. Fragments related to QSFYT-PEG11, SFYT-PEG11 and FYT-PEG11 are observed.\nSupplemental Figure 1. […]\nM GS4_V4 (non-acetylated, panel a) and M GS4_V8 (acetylated, panel b ) were incubated in 100% human serum for 0 and 48-hours. Serum proteins were precipitated, and the peptide was analyzed by analytical\nHPLC. The mass of the peptide and degradation products were determined by MALDI MS and are […]\nMGS4_V8, MGS4_V9, or MGS4_V10 were conjugated with streptavidin-Alexa Fluor 650 and were incubated with the indicated cell line for 1 hour. Non-internalized peptide was rem ov ed, and the mean number of peptides internalized per cell was determined to calculate the EC50. […]\nSupplemental Figure 4 : Peptide-Streptavidin conjugates are nontoxic to cells. a. […] After 72 hours, viability was measured. […]"}, "100% human serum": {"assay": "100% human serum", "settings": "37 °C, up to 48 h"}, "[1]": {"settings": "H1299 cells, 1 h at 37 °C, normalized uptake, one-site specific binding fit, Average ± SEM, minimum 3 replicates"}}, "note": "“Also recorded” adds a separate entry of the source. Non-standard residues stand in square brackets, D forms with d. Residues, ends and D or L forms follow the SMILES beside them. *: point of attachment. X1 = O=C(CCCC[C@@H]1SC[C@@H]2NC(=O)N[C@@H]21)NCCCOCCOCCOCCCN*; PEG12 = NCCOCCOCCOCCOCCOCCOCCOCCOCCOCCOCCOCCOCCC(=O)O", "data": [{"compound": "CC(C)[C@H](NC(=O)[C@H](C)NC(=O)[C@H](Cc1c[nH]cn1)NC(=O)[C@@H](N)Cc1ccccc1)C(=O)N1CCC[C@H]1C(=O)N[C@@H](CCC(N)=O)C(=O)N[C@@H](CO)C(=O)N[C@@H](Cc1ccccc1)C(=O)N[C@@H](Cc1ccc(O)cc1)C(=O)N[C@H](C(=O)N[C@@H](C)C(=O)N1CCC[C@H]1C(=O)NCCOCCOCCOCCOCCOCCOCCOCCOCCOCCOCCOCCOCCC(=O)N[C@@H](CCC(=O)NCCCOCCOCCOCCCNC(=O)CCCC[C@@H]1SC[C@@H]2NC(=O)N[C@@H]21)C(N)=O)[C@@H](C)O", "note": "[MGS4_V2] (H-FHAVPQSFYTAP[PEG12]E(X1)-NH2)", "values": [{"measurement": "Bmax (best-fit)", "setting": "H1299 cells", "result": 1.065}]}, {"compound": "CC(C)[C@H](NC(=O)[C@H](C)NC(=O)[C@H](Cc1c[nH]cn1)NC(=O)[C@@H](N)Cc1ccccc1)C(=O)N1CCC[C@H]1C(=O)N[C@@H](CCC(N)=O)C(=O)N[C@@H](CO)C(=O)N[C@@H](Cc1ccccc1)C(=O)N[C@@H](Cc1ccc(O)cc1)C(=O)N[C@H](C(=O)N[C@@H](C)C(=O)NCCOCCOCCOCCOCCOCCOCCOCCOCCOCCOCCOCCOCCC(=O)N[C@@H](CCC(=O)NCCCOCCOCCOCCCNC(=O)CCCC[C@@H]1SC[C@@H]2NC(=O)N[C@@H]21)C(N)=O)[C@@H](C)O", "note": "[MGS4_V3] (H-FHAVPQSFYTA[PEG12]E(X1)-NH2)", "values": [{"measurement": "fold decrease in affinity", "setting": "H1299 cells", "result": "3-5 fold"}, {"measurement": "Bmax (best-fit)", "setting": "H1299 cells", "result": 1.247}]}, {"compound": "CC(C)[C@H](NC(=O)[C@H](C)NC(=O)[C@H](Cc1c[nH]cn1)NC(=O)[C@@H](N)Cc1ccccc1)C(=O)N1CCC[C@H]1C(=O)N[C@@H](CCC(N)=O)C(=O)N[C@@H](CO)C(=O)N[C@@H](Cc1ccccc1)C(=O)N[C@@H](Cc1ccc(O)cc1)C(=O)N[C@H](C(=O)NCCOCCOCCOCCOCCOCCOCCOCCOCCOCCOCCOCCOCCC(=O)N[C@@H](CCC(=O)NCCCOCCOCCOCCCNC(=O)CCCC[C@@H]1SC[C@@H]2NC(=O)N[C@@H]21)C(N)=O)[C@@H](C)O", "note": "[MGS4_V4] (H-FHAVPQSFYT[PEG12]E(X1)-NH2)", "values": [{"measurement": "fold decrease in affinity", "setting": "H1299 cells", "result": "3-5 fold"}, {"measurement": "Bmax (best-fit)", "setting": "H1299 cells", "result": 1.402}, {"measurement": "peptide after incubation in human serum", "setting": "Stability in human serum", "result": "none of the starting material"}]}, {"compound": "CC(=O)N[C@@H](Cc1ccccc1)C(=O)N[C@@H](Cc1c[nH]cn1)C(=O)N[C@@H](C)C(=O)N[C@H](C(=O)N1CCC[C@H]1C(=O)N[C@@H](CCC(N)=O)C(=O)N[C@@H](CO)C(=O)N[C@@H](Cc1ccccc1)C(=O)N[C@@H](Cc1ccc(O)cc1)C(=O)N[C@H](C(=O)N[C@@H](C)C(=O)N1CCC[C@H]1C(=O)NCCOCCOCCOCCOCCOCCOCCOCCOCCOCCOCCOCCOCCC(=O)N[C@@H](CCC(=O)NCCCOCCOCCOCCCNC(=O)CCCC[C@@H]1SC[C@@H]2NC(=O)N[C@@H]21)C(N)=O)[C@@H](C)O)C(C)C", "note": "[MGS4_V7] (Ac-FHAVPQSFYTAP[PEG12]E(X1)-NH2)", "values": [{"measurement": "Bmax (best-fit)", "setting": "H1299 cells", "result": 1.470}]}, {"compound": "AcFHAVPQSFYT-PEG11", "values": [{"measurement": "not cleaved", "setting": "100% human serum", "result": "only full-length peptide observed after 48 h; 93.4% of peak at 48 Hours (93.5% in starting material)"}]}, {"compound": "FHAVPQSFY*** [MGS4_V5, monomeric MGS4 truncated by three C-terminal amino acids]", "values": [{"measurement": "EC50 (nM)", "setting": "H1299 cells; [1]", "result": "Not Detected^2"}]}, {"compound": "FHAVPQSFYT-PEG11", "values": [{"measurement": "cleaved bond", "setting": "100% human serum", "result": "P-Q, major, 48 Hours"}, {"measurement": "fragment found", "setting": "100% human serum", "result": "SFYT-PEG11, 48 Hours; also recorded: FYT-PEG11, 48 Hours"}]}, {"compound": "FHAVPQSFYTAP [MGS4_V1, tetrameric full-length MGS4 peptide]", "values": [{"measurement": "EC50", "setting": "H1299 cells; [1]", "result": "3.6 ± 0.49", "unit": "nM"}, {"measurement": "Bmax (best-fit)", "setting": "H1299 cells", "result": 1.171}]}]}
